From US20250002450A1, “CATIONIC STEROID COMPOUNDS, METHOD OF OBTAINING THEREOF, FORMULATIONS COMPRISING THEREOF AND THEIR USES” (UNIVERSIDADE DO PORTO, priority 2021, published 2025)

Key:
Assay in all cases: Antibacterial MIC/MBC (broth microdilution)
[1] = system: E. coli 2252 (COL-resistant); type: cell-based, Escherichia coli
In short: (§1)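 Two-fold serial dilutions in Mueller-Hinton broth 2 (0.062-64 μg/mL), inoculum about 5×10^5 CFU/mL, 20 h at 37 degrees C. MIC was the lowest concentration preventing visible growth; MBC was the lowest concentration killing 99.9% of the inoculum after plating wells without growth on MH agar.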

[2] = system: Streptococcuss pyogenes ATCC 19615; type: cell-based, Streptococcus pyogenes
In short: as §1

C. jejuni 4448 = type: cell-based, Campylobacter jejuni
C. jejuni 4432 = type: cell-based, Campylobacter jejuni
C. jejuni P5/4 = type: cell-based, Campylobacter jejuni
C. jejuni 4433 = type: cell-based, Campylobacter jejuni
S. aureus 66/1 (MRSA) = type: cell-based, Staphylococcus aureus
In short: as §1

[3] = system: Salmonella enterica serovar Typhimurium CECT 443; type: cell-based
In short: as §1

[4] = system: Campylobacter jejuni ATCC 33560; type: cell-based
[5] = system: Listonella anguilarum ATCC 1924; type: cell-based
In short: as §1

[6] = system: Klebsiella pneumoniae ATCC 13883; type: cell-based
In short: as §1

[7] = system: Yersinia ruckeri ATCC 29473; type: cell-based
In short: as §1

[8] = system: Pseudomonas aeruginosa ATCC 27853; type: cell-based
In short: as §1

[9] = system: Escherichia coli ATCC 25922; type: cell-based
In short: as §1

[10] = system: Staphylococcus aureus ATCC 29213; type: cell-based
In short: as §1

[11] = system: Acinetobacter baumannii ATCC 19606; type: cell-based
In short: as §1

[12] = Streptococcuss pyogenes ATCC 19615
[13] = Campylobacter jejuni ATCC 33560
[14] = Listonella anguilarum ATCC 1924
[15] = Klebsiella pneumoniae ATCC 13883
[16] = Pseudomonas aeruginosa ATCC 27853
[17] = Acinetobacter baumannii ATCC 19606

C[C@H](CCC(=O)NCCN)[C@H]1CC[C@H]2[C@@H]3CC[C@@H]4C[C@H](O)CC[C@]4(C)[C@H]3C[C@H](O)[C@]12C [Compound 1, (R)—N-(2-aminoethyl)-4-((3R,5R,8R,9S,10S,12S,13R,14S,17R)-3,12-dihydroxy-10,13-dimethylhexadecahydro-1H-cyclopenta[a]phenanthren-17-yl) pentanamida]
64 µg/mL: MIC ([1]; E. coli 2252 (COL-resistant)) | MBC [2, 12] | MIC [2, 12] | MBC (C. jejuni 4448) | MIC (C. jejuni 4448) | MBC (C. jejuni 4432) | MIC (C. jejuni 4432) | MBC (C. jejuni 4433) | MIC (C. jejuni 4433) | MBC [4, 13] | MIC [4, 13] | MBC [6, 15] | MIC [6, 15] | MBC [8, 16] | MIC [8, 16] | MBC ([9]; Escherichia coli ATCC 25922) | MBC [11, 17] | MIC [11, 17]
32 µg/mL: MBC (C. jejuni P5/4) | MIC (C. jejuni P5/4) | MBC (S. aureus 66/1 (MRSA)) | MIC (S. aureus 66/1 (MRSA)) | MBC [5, 14] | MBC [7] | MIC ([9]; Escherichia coli ATCC 25922)
displayed antibacterial activity: antibacterial activity (in words) [7]
showed antimicrobial activity: antibacterial activity (in words) (C. jejuni 4448) | antibacterial activity (in words) (C. jejuni 4432) | antibacterial activity (in words) (C. jejuni 4433) | antibacterial activity (in words) ([4]; C. jejuni ATCC 33560)
exhibited antimicrobial activity: antibacterial activity (in words) [3]
active: antibacterial activity (in words) ([1]; E. coli 2252) | antibacterial activity (in words) ([2]; S. pyogenes ATCC 19615) | antibacterial activity (in words) (C. jejuni P5/4) | antibacterial activity (in words) ([5]; Listonella anguilarum) | antibacterial activity (in words) ([6]; K. pneumoniae ATCC 13883) | antibacterial activity (in words) ([8]; P. aeruginosa ATCC 27853) | antibacterial activity (in words) ([9]; E. coli ATCC 25922)
16 µg/mL: MBC [3] | MIC [3] | MIC [5, 14] | MIC [7] | MBC [10] | MIC [10]
displayed an inhibitory effect: antibacterial activity (in words) ([11]; A. baumannii ATCC 19606)
